Data from EP4471048A1, “PEPTIDE INHIBITORS OF INTERLEUKIN-23 RECEPTOR” (Zealand Pharma A/S, priority 2023, dated 2024).

Experiments:
human IL-23R = biological target: T1, human IL-23R (Homo sapiens, UniProt Q5VWK5); assay: biochemical
T1 sequence (Q5VWK5 22-629): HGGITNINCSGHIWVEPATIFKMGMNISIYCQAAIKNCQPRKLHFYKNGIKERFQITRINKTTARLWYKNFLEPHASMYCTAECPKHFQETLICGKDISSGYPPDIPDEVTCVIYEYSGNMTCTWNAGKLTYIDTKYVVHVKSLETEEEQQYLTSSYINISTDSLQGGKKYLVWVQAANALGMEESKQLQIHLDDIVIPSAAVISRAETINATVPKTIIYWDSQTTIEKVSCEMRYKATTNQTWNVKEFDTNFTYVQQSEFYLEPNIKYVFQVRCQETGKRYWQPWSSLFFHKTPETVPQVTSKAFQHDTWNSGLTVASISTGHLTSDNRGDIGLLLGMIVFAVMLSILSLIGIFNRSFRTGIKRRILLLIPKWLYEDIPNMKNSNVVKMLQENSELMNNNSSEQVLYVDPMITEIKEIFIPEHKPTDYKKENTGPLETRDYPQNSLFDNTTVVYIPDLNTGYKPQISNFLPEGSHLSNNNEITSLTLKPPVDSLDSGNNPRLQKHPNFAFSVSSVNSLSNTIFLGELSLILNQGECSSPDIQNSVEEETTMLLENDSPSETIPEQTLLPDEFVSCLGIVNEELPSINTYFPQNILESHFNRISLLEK
Procedure, shortened: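 Membranes from HEK293 cells stably expressing Nluc-tagged human IL-23R were incubated 2 h at room temperature with test compound and a fluorophore-labelled tracer. After substrate addition, loss of BRET (TAMRA over luciferase emission) reported tracer displacement. A 4PL fit gave IC50 values.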

[1] = Peptide stability in simulated intestinal fluid (SIF); assay type: in vitro ADME; details: 37 °C, porcine pancreatin
Procedure, shortened: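 Peptides were incubated at 37 °C with gentle shaking in pH 6.8 potassium phosphate SIF containing porcine pancreatin (10 g/L). Supernatants were analysed by LC-HRMS. Percent remaining at each timepoint, including 4 h, was calculated relative to time zero from absolute peak areas.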

% displacement (hIL-23R NIuc) (human IL-23R): 103%
IC50 (human IL-23R): 0.04 nM
SIF (% remaining 4 h) ([1]; 10 µM, pH 6.8, 4 h): 0%
remaining at 1 h, 10 µM ([1]; pig, pH 6.8, 1 h): 23%
remaining at 4 h, 10 µM ([1]; pig, SAR tables, % peptide remaining, pH 6.8, 4 h, read-out: SIF (% after 4 h)): 0%
SMILES: CC(C)C[C@]1(C)NC(=O)[C@H](Cc2ccc3ccccc3c2)NC(=O)[C@H](Cc2ccc(OCCN)cc2)NC(=O)[C@@H]2CCC(=O)N[C@H](CCCCNC(=O)CC[C@@H](C(=O)N[C@@H](CCN)C(=O)N[C@@H](Cc3cccnc3)C(N)=O)NC1=O)C(=O)N[C@@H]([C@@H](C)O)C(=O)N[C@@H](C(C)C)C(=O)N[C@@H](Cc1c[nH]c3ccccc13)C(=O)N[C@@H](CCC(N)=O)C(=O)N2 [Compound 1, [{d}K](1c)(6c)^†TVWQE(6c)[Y(2-aminoethoxy)][2-Nal][2-Me-Leu]E(1c)[Dab][3-(3-Pyridyl)-Ala]-[NH2]]
